Source: patent US6992060B2, “Prolonged efficacy of islet neogenesis therapy methods with a gastrin/CCK receptor ligand and an EGF receptor ligand composition in subjects with preexisting diabetes” (Waratah Pharmaceuticals, Inc., priority 2001, dated 2006)

Tested on: rats
Test: Induction of diabetes by intravenous streptozotocin
Format: in vivo, rat
Conditions: 50 mg/kg intravenous injection
Description: Diabetes was induced by intravenous injection with 50 mg/kg streptozotocin (STZ), which reduced pancreatic insulin content by 95%. One week later, STZ diabetic rats (of weight 200–250 g) were administered either the vehicle alone as a control (labeled CON in FIG. 1), or were administered a combination of human gastrin 17 (4 μg/kg) and human TGFα (4 μg/kg) peptides (labeled GAS/TGF) by once-daily, intraperitoneal injections for 12 days. At 1, 2, 4 and 8 weeks after treatment, intraperitoneal glucose tolerance tests (IPGTT) were performed, to measure both blood glucose levels, and plasma insulin levels, in response to a challenge amount of glucose.

## CN(N=O)C(=O)N[C@H]1C(O)O[C@H](CO)[C@@H](O)[C@@H]1O (mixture of isomers) [streptozotocin]
  reduction of pancreatic insulin content: 95%
